In patent publication US9809623B2, “α4β7 peptide monomer and dimer antagonists” (Protagonist Therapeutics, Inc., priority 2014, dated 2017):
Numbered stars: 1 amine (or outer) side, 2 acyl side, 3 side chain; on linkers, the order of the positions; unused ones are H or OH. Bridge positions count the residues as written; N and C are the ends. Square brackets hold non-standard residues; d marks the D form. Peptide text beside a SMILES is read from it. I, II: the chains in the order shown. 2Nal = N[C@@H](Cc1ccc2ccccc2c1)C(=O)O; Diglycolyl = O=C(COCC(=O)[*:2])[*:1]; NMeR = CN[C@@H](CCCNC(=N)N)C(=O)O; NMeK = CN[C@@H](CCCCN)C(=O)O; Pen = CC(C)(S)[C@H](N)C(=O)O; dNMeK = CN[C@H](CCCCN)C(=O)O

Columns and labels:
Intestinal Wash Assay = format: in vitro ADME; parameters: dose or concentration left out as unconfirmed; conditions: rat, rat intestinal wash fluid (small intestine); Table 4-C, t1/2
Procedure: Intestinal wash assay solution was prepared from rats fasted for at least 6 hours prior. The animals were euthanized and a midline incision was made from the point of the jaw to the pubis. The abdomen and chest were opened by making 2 incisions through the anterior chest wall on either side. Hemostats were used to clamp off both ends of the animal's stomach—where the esophagus meets the stomach and where the stomach meets the duodenum. A hemostat was also used to clamp 2-3 cm down the intestine from where the stomach meets the duodenum.
Intestinal wash assay solution was prepared by separating 20 cm of the small intestine from the body. Once separated 20 cm, the end was clamped with a hemostat and the section cut from the body, leaving the hemostats in place on the removed section. 1 mL of chilled saline was drawn up with a 1 mL syringe. One end of the intestine was held up and the clamp removed. Approximately 2-2.5 cm of the gavage needle was inserted into the intestine, and the saline was slowly injected. The fluid was massaged down the length of the intestine using gloved fingers. The gavage needle was removed and the clamp was replaced on the end of the intestine. The intestine was sat straight and a q-tip was run firmly up and down the length of the outside of the intestine approximately 3-6 times to mix the enzymes with the saline. One end of the intestine was held up and some of the fluid was carefully moved at the top down. The clamp was removed and that end of the intestine was set into a small weigh boat on ice. The other end of the intestine was carefully picked up and held vertically. Gloved fingers were gently run down it to squeeze the fluid into the container. The previous steps saline injection and fluid procurement steps were repeated twice using only 0.5 mL of chilled saline. The sample was pipetted from the weigh boat into a centrifuge tube and placed on ice. All intestinal wash samples were spun down in a cold centrifuge at 12,000×g for 10 minutes. The supernatant from the top of each centrifuged sample was pipetted into cryotubes, and kept on ice until use.
Intestinal wash assays were performed using intestinal wash assay solution prepared as described above. A sufficient amount of rat intestinal wash was thawed. For each sample, 200 uL of rat intestinal wash fluid was pipetted into 1.5 mL Eppendorf tubes (number of tubes for experiment=number of test peptides×N). The tubes were pre-incubated for about 10 minutes in a water bath at 37° C.
Peptide working solutions ([…]) were prepared by combining 2 μl of 10 mM DMSO stock with 128 μl 100 mM Tris pH 7.5.
Peptide quench solvent (50% ACN-50% MeOH-5% Formic Acid)+IS (5 ug/ml; 1 ul of 10 mg/mL IS per 2 mL quench solvent) was prepare and a quench plate prepared and placed on ice. 200 ul of quench solution was added to each well of the quench plate for T=0, 10, 20, 30, 60 and 180 min collection.
For each test sample and a positive control, 30 ul of peptide working solution was added to a tube of intestinal wash fluid. The tube was gently vortexed and 30 ul was immediately removed and quenched in T=0 well of quench plate (pipetted directly into the quench solution). This well was covered tightly to prevent evaporation. 30 ul aliquots were removed at T=10 min, T=20 min, T=30 min, T=60 min, and T=180 min, and quenched. When all time points were collected, the quench plate was centrifuged at 10,000 rpm for 10 minutes. 150 uL of each supernatant was transferred to a polypropylene 96-well collection plate. 300 ul Mobile Phase A was added to each collection, and LC/MS/MS analysis was performed to determine the amount or concentration of peptide remaining in each test sample and positive control.

[1] = Dithiothreitol (DTT) Redox Stability Assay; format: physicochemical; conditions: Table 4-C, t1/2, 0.5 mM DTT
Procedure: For each peptide tested, the DTT stability assay was conducted by adding 5 μl of a 10 mM peptide stock solution in DMSO to 1 ml of 100 mM Tris-Cl, pH 7.5 (final peptide concentration is 50 μM). At time 0 min, 5 ul of a freshly thawed 100 mM DTT solution was added to the incubation tube containing the peptide, such that the final DTT concentration was 0.5 mM. The reactions were incubated at room temperature. At different time points up to 120 minutes (20 min, 40 min, 80 min, 120 min), 50 ul aliquots were removed, and the reaction was quenched by adding 10 μl of 5M acetic acid. To measure disappearance of the parent peptide, the quenched samples (30 μl) were analyzed by reverse phase HPLC and UV absorbance at 220 nm. The fraction oxidized remaining was graphed versus time, and half-lives were calculated by fitting to a first-order exponential decay equation using Excel.

[2] = Cysteine/Cystine Redox Stability Assay; format: physicochemical; conditions: Table 4-C; ORP where half of the oxidized peptide remains
Procedure: Peptides were diluted to 90 μM by adding 4.545 μl of a 10 mM peptide DMSO stock to 495.45 μl of 100 mM Tris-Cl, pH 7.5. Aliquots of […] were transferred to 8 wells down a column of a 96 well plate. 20 μl of 2.5 mM Cystine in 100 mM Tris-Cl, pH 7.5 was added to each well. Cysteine stock solutions in 100 mM Tris-Cl, pH 7.5 were prepared fresh at the following concentrations: 400 mM, 200 mM, 80 mM, 44 mM, 22 mM, 11 mM, 5.5 mM and blank. At time 0, 25 μl of each cysteine stock solution was added to the 55 μl of cystine/peptide solution, and the mixture was incubated at room temperature for 40 min. The samples were quenched by adding 20 μl of 5M acetic acid and analyzed by reverse phase HPLC. The fraction of oxidized peptide was calculated and plotted against the calculated oxidation reduction potential (ORP) as defined by the Nernst equation. The ORP where half of the oxidized peptide remains is shown below.

Plasma Stability Assay = format: in vitro ADME; conditions: rat, Table 4-C, t1/2
Procedure: 0.5 mL of rat plasma (one tube per peptide, volume depends on how many time points are to be collected, 50 μL per time point) was added to each well of a 96-well polypropylene plate, and the tubes were incubated in a heated water bath, preset to 37° C. with gentle shaking. 1 μL of 10 mM peptide stock solution was added to each tub, and then 200 μL of Acetonitrile w/0.1% Formic Acid was added to each tube (1:4). Samples were collected at the following time points: 0, 10, 30, 45, 60, 120, 180 mins. When all time points were collected, the plate was centrifuged at 5000 rpm for 5 mins. LCM analysis was performed by pipetting 100 μL of each sample to appropriate well of a 96-well deep plate. 100 μL of an internal standard peptide (1 ug/mL) was added in Mobile Phase A to each well. The plate was vortexed and injected

SMILES: CC(=O)N[C@@H]1C(=O)N[C@@H](CCCNC(=N)N)C(=O)N[C@@H](CO)C(=O)N[C@@H](CC(=O)O)C(=O)N[C@@H]([C@@H](C)O)C(=O)N[C@@H](CC(C)C)C(=O)N[C@H](C(=O)N[C@H](CCCCNC(=O)COCC(=O)NCCCC[C@@H](NC(=O)[C@@H]2CSSC(C)(C)[C@H](NC(C)=O)C(=O)N[C@@H](CCCNC(=N)N)C(=O)N[C@@H](CO)C(=O)N[C@@H](CC(=O)O)C(=O)N[C@@H]([C@@H](C)O)C(=O)N[C@@H](CC(C)C)C(=O)N2)C(N)=O)C(N)=O)CSSC1(C)C [compound 207, (Ac-Pen-R-S-D-T-L-C-k-NH2)2-DIG] (I: Ac-[Pen]RSDTLC[dK]-NH2 / II: Ac-[Pen]RSDTLC[dK]-NH2; disulfide I:1-I:7, II:1-II:7 (inferred); linker I:8-II:8 via Diglycolyl (inferred))
- half-life (Intestinal Wash Assay): < 0.167 h
- DTT Min [1]: 35 min
- Cys/CySS (mV) [2]: −173 mV

SMILES: CC(=O)N[C@@H]1C(=O)N(C)[C@@H](CCCNC(=N)N)C(=O)N[C@@H](CO)C(=O)N[C@@H](CC(=O)O)C(=O)N[C@@H]([C@@H](C)O)C(=O)N[C@@H](CC(C)C)C(=O)N[C@H](C(=O)N[C@@H](Cc2c[nH]c3ccccc23)C(=O)N[C@H](CCCCN)C(N)=O)C(C)(C)SSC1(C)C [compound 208, Ac-Pen-N-Me-R-S-D-T-L-Pen-W-k-NH2] (Ac-[Pen][NMeR]SDTL[Pen]W[dK]-NH2; disulfide 1-7)
- DTT Min [1]: >120 min
- Cys/CySS (mV) [2]: <−300 mV

SMILES: CC(=O)N[C@@H]1C(=O)N(C)[C@@H](CCCNC(=N)N)C(=O)N[C@@H](CO)C(=O)N[C@@H](CC(=O)O)C(=O)N[C@@H]([C@@H](C)O)C(=O)N[C@@H](CC(C)C)C(=O)N[C@H](C(=O)N[C@@H](Cc2ccc3ccccc3c2)C(=O)N[C@@H](CCC(=O)O)C(=O)N[C@H](CCCCN)C(N)=O)C(C)(C)SSC1(C)C [compound 210, Ac-Pen-N-Me-R-S-D-T-L-Pen-2-Nal-E-k-NH2] (Ac-[Pen][NMeR]SDTL[Pen][2Nal]E[dK]-NH2; disulfide 1-7)
- DTT Min [1]: >120 min
- Cys/CySS (mV) [2]: <−300 mV

SMILES: CC(=O)N[C@@H]1C(=O)N(C)[C@@H](CCCNC(=N)N)C(=O)N[C@@H](CO)C(=O)N[C@@H](CC(=O)O)C(=O)N[C@@H]([C@@H](C)O)C(=O)N[C@@H](CC(C)C)C(=O)N[C@H](C(=O)N[C@@H](Cc2c[nH]c3ccccc23)C(=O)N[C@@H](CCC(=O)O)C(=O)N(C)[C@H](CCCCNC(=O)COCC(=O)NCCCC[C@H](C(N)=O)N(C)C(=O)[C@H](CCC(=O)O)NC(=O)[C@H](Cc2c[nH]c3ccccc23)NC(=O)[C@H]2NC(=O)[C@H](CC(C)C)NC(=O)[C@H]([C@@H](C)O)NC(=O)[C@H](CC(=O)O)NC(=O)[C@H](CO)NC(=O)[C@H](CCCNC(=N)N)N(C)C(=O)[C@@H](NC(C)=O)C(C)(C)SSC2(C)C)C(N)=O)C(C)(C)SSC1(C)C [compound 214, [Ac-Pen-(N-Me-Arg)-Ser-Asp-Thr-Leu-Pen-Trp-Glu-(N-Me-D-Lys)-NH2]2-DIG] (I: Ac-[Pen][NMeR]SDTL[Pen]WE[dNMeK]-NH2 / II: Ac-[Pen][NMeR]SDTL[Pen]WE[dNMeK]-NH2; disulfide I:1-I:7, II:1-II:7 (inferred); linker I:10-II:10 via Diglycolyl (inferred))
- half-life (Intestinal Wash Assay): > 6 h
- half-life at 20 μM (Plasma Stability Assay): > 6 h
- DTT Min [1]: >120 min

SMILES: CC(=O)N[C@@H]1C(=O)N(C)[C@@H](CCCNC(=N)N)C(=O)N[C@@H](CO)C(=O)N[C@@H](CC(=O)O)C(=O)N[C@@H]([C@@H](C)O)C(=O)N[C@@H](CC(C)C)C(=O)N[C@H](C(=O)N[C@@H](Cc2c[nH]c3ccccc23)C(=O)N[C@@H](CCC(=O)O)C(=O)N(C)[C@@H](CCCCNC(=O)COCC(=O)NCCCC[C@@H](C(N)=O)N(C)C(=O)[C@H](CCC(=O)O)NC(=O)[C@H](Cc2c[nH]c3ccccc23)NC(=O)[C@H]2NC(=O)[C@H](CC(C)C)NC(=O)[C@H]([C@@H](C)O)NC(=O)[C@H](CC(=O)O)NC(=O)[C@H](CO)NC(=O)[C@H](CCCNC(=N)N)N(C)C(=O)[C@@H](NC(C)=O)C(C)(C)SSC2(C)C)C(N)=O)C(C)(C)SSC1(C)C [compound 215, [Ac-Pen-(N-Me-Arg)-Ser-Asp-Thr-Leu-Pen-Trp-Glu-(N-Me-Lys)-NH2]2-DIG] (I: Ac-[Pen][NMeR]SDTL[Pen]WE[NMeK]-NH2 / II: Ac-[Pen][NMeR]SDTL[Pen]WE[NMeK]-NH2; disulfide I:1-I:7, II:1-II:7 (inferred); linker I:10-II:10 via Diglycolyl (inferred))
- half-life (Intestinal Wash Assay): > 6 h
- half-life at 20 μM (Plasma Stability Assay): > 6 h
- DTT Min [1]: >120 min

SMILES: CC(=O)N[C@@H]1C(=O)N(C)[C@@H](CCCNC(=N)N)C(=O)N[C@@H](CO)C(=O)N[C@@H](CC(=O)O)C(=O)N[C@@H]([C@@H](C)O)C(=O)N[C@@H](CC(C)C)C(=O)N[C@H](C(=O)N[C@@H](Cc2c[nH]c3ccccc23)C(=O)N[C@H](CCC(=O)O)C(=O)N[C@H](CCCCNC(=O)COCC(=O)NCCCC[C@@H](NC(=O)[C@@H](CCC(=O)O)NC(=O)[C@H](Cc2c[nH]c3ccccc23)NC(=O)[C@H]2NC(=O)[C@H](CC(C)C)NC(=O)[C@H]([C@@H](C)O)NC(=O)[C@H](CC(=O)O)NC(=O)[C@H](CO)NC(=O)[C@H](CCCNC(=N)N)N(C)C(=O)[C@@H](NC(C)=O)C(C)(C)SSC2(C)C)C(=O)O)C(=O)O)C(C)(C)SSC1(C)C [compound 216, (Ac-Pen-N-Me-R-S-D-T-L-Pen-W-e-k-OH)2-DIG] (I: Ac-[Pen][NMeR]SDTL[Pen]W[dE][dK]-OH / II: Ac-[Pen][NMeR]SDTL[Pen]W[dE][dK]-OH; disulfide I:1-I:7, II:1-II:7 (inferred); linker I:10-II:10 via Diglycolyl (inferred))
- half-life (Intestinal Wash Assay): > 6 h
- half-life at 20 μM (Plasma Stability Assay): > 3 h
